The source of these data is patent US7601716B2, “Pyridopyrazines and derivatives thereof as ALK and c-Met inhibitors” (Cephalon, Inc., priority 2006, dated 2009).

Assay [1] concerns the target baculovirus-expressed ALK (Homo sapiens, UniProt Q9UM73). Nature of the assay: ALK Kinase Assay (ELISA/TRF, PLC-γ substrate). Note: 1 µM ATP (Km level). The class given is biochemical. The conditions noted are these: read-out: ALK Kinase Inhibition (IC50). The essentials:
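Plates coated with GST-PLC-γ substrate (10 µg/mL in TBS), then reaction started with 30 ng/ml baculovirus-expressed ALK, 15 min at 37 °C. Phosphotyrosine detected by Eu-labeled PT66 antibody and time-resolved fluorescence. IC50 from variable-slope sigmoidal fit of percent inhibition versus log concentration.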

Assay [2] addresses T1, c-Met (cytoplasmic domain) (Homo sapiens, UniProt P08581).
T1 construct: Reactions were initiated with 30 ng/mL c-Met (cytoplasmic domain, Invitrogen Corporation #PV3143); purchased Invitrogen Corporation PV3143
Put plainly: c-Met Kinase Assay (ELISA/TRF, PLC-γ substrate). Type of assay: biochemical. The conditions noted are these: 3 μM ATP (Km level); read-out: c-Met Kinase Inhibition (IC50). As to the method: Example compounds were tested for their ability to inhibit the kinase activity of baculovirus-expressed ALK using a modification of the ELISA protocol reported for trkA in Angeles, T. S. et al., Anal. Biochem. 1996, 236, 49-55, which is incorporated herein by reference in its entirety. Phosphorylation of the substrate, phospholipase C-gamma (PLC-γ) generated as a fusion protein with glutathione S-transferase (GST) as reported in Rotin, D. et al., EMBO J. 1992, 11, 559-567, which is incorporated herein by reference in its entirety, was detected with a europium-labeled anti-phosphotyrosine antibody and measured by time-resolved fluorescence (TRF). Briefly, each 96-well plate was coated with 100 μL/well of 10 μg/mL substrate (phospholipase C-γ) in Tris-buffered saline (TBS). […] The reaction was initiated by adding enzyme (30 ng/ml ALK) and was allowed to proceed at 37° C. for 15 minutes. Detection of the phosphorylated product was performed by adding 100 μl/well of Eu-N1 labeled PT66 antibody (Perkin Elmer # AD0041). Incubation at 37° C. then proceeded for one (1) hour, followed by addition of 100 μL enhancement solution (Wallac #1244-105). The plate was gently agitated and after thirty minutes, the fluorescence of the resulting solution was measured using the EnVision 2100 (or 2102) multilabel plate reader (Perkin Elmer).
Data analysis was performed using ActivityBase (IDBS, Guilford, UK). IC50 values were calculated by plotting percent inhibition versus log10 of the concentration of compound and fitting to the nonlinear regression sigmoidal dose-response (variable slope) equation in XLFit (IDBS, Guilford, UK).
Reactions were initiated with 30 ng/mL c-Met (cytoplasmic domain, Invitrogen Corporation #PV3143).
In general terms: An ELISA detects its analyte on a solid surface through an enzyme-linked reagent.

As usually defined, the IC50 is the point on the concentration scale where inhibition reaches its midpoint.

Structures can show the parent of a compound that is named as a salt. Where only a bound is given, the exact number is not on record here.

Chain of baculovirus-expressed ALK (Q9UM73 19-1620): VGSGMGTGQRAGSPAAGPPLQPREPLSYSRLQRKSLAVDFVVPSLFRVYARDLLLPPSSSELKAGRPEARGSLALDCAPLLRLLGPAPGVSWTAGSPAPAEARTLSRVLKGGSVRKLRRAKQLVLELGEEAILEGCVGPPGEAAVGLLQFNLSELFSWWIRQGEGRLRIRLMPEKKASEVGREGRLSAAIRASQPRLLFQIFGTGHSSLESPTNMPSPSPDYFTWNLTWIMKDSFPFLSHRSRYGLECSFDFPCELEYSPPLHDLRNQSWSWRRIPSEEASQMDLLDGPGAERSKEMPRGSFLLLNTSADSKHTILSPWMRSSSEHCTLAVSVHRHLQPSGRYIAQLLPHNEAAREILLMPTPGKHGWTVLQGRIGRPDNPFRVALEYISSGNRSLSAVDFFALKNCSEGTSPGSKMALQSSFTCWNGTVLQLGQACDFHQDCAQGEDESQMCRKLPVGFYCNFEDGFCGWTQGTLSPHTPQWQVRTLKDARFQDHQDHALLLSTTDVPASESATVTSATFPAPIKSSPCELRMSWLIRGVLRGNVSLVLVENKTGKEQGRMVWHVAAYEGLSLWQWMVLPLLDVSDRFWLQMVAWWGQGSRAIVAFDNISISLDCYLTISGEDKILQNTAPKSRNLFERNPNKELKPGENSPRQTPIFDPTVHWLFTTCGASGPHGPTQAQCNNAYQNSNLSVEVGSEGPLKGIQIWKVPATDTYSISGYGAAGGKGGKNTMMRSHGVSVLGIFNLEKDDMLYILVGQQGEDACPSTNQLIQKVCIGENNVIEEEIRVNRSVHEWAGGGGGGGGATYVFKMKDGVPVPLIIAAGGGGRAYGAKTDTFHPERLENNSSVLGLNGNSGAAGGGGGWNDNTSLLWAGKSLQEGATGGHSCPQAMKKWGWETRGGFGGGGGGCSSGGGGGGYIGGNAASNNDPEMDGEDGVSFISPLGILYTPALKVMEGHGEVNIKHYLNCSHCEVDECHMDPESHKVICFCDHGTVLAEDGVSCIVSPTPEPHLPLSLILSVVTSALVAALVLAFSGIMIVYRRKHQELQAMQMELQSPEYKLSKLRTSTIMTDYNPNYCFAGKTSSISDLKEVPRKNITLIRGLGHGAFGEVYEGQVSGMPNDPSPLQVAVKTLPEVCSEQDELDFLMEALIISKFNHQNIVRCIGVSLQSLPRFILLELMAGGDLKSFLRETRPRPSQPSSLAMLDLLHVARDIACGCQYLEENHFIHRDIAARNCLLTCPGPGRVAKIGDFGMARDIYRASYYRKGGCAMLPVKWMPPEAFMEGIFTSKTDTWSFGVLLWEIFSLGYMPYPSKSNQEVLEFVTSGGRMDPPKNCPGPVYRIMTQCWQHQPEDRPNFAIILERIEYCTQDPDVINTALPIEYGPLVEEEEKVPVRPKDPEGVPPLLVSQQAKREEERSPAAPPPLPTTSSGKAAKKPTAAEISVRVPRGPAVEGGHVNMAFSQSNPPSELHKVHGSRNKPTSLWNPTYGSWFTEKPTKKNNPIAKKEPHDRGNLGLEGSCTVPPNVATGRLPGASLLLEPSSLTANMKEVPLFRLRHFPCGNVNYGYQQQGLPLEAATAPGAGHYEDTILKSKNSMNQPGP
T1 sequence (P08581 956-1390 limits assumed): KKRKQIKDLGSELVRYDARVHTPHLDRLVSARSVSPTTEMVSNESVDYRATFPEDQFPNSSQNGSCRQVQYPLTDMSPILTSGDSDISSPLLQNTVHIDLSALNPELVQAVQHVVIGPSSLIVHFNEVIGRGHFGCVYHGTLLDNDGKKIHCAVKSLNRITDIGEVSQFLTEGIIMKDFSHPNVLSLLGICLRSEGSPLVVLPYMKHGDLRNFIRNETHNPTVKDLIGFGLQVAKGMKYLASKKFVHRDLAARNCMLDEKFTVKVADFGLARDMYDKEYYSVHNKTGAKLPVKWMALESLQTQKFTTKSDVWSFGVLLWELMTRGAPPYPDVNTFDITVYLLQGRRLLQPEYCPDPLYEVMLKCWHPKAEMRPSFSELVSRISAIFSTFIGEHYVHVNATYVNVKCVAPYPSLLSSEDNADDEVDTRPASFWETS

`CC(C)NC(=O)CN1CCN(C(=O)c2cnc3c(c2)N(Cc2cc(Cl)ccc2Cl)CCN3)CC1` [Example 236, 2-{4-[1-(2,5-Dichlorobenzyl)-1,2,3,4-tetrahydropyrido[2,3-b]pyrazine-7-carbonyl]piperazin-1-yl}-N-isopropylacetamide]: the concentration for half-maximal inhibition (IC50) in assay [1] was in the range of 1 to 10 µM; in assay [2], 10 to 100 µM. Taken in the same sequence, the figures for `CS(=O)(=O)c1ccc(-c2cnc3c(c2)N(Cc2ccccc2)C(=O)CN3)cc1` [Example 24, 1-Benzyl-7-(4-methanesulfonyl-phenyl)-3,4-dihydro-1H-pyrido[2,3-b]pyrazin-2-one] were 1 to 10 µM and over 100 µM. In the same order, the values of `O=C(NCc1cccc(Cl)c1)c1cnc2c(c1)N(Cc1cc(Cl)ccc1Cl)CCN2` [Example 228, 1-(2,5-Dichlorobenzyl)-1,2,3,4-tetrahydropyrido[2,3-b]pyrazine-7-carboxylic acid 3-chlorobenzylamide] are 1 to 10 µM and 10 to 100 µM. Taken in the same sequence, the figures for `O=C(c1cnc2c(c1)N(Cc1cc(Cl)ccc1Cl)CCN2)N1CCN(c2nccc3occc23)CC1` [Example 220, [1-(2,5-Dichlorobenzyl)-1,2,3,4-tetrahydropyrido[2,3-b]pyrazin-7-yl]-(4-furo[3,2-c]pyridin-4-yl-piperazin-1-yl)methanone] were 1 to 10 µM and 1 to 10 µM. `CC(c1cc(F)ccc1F)N1CCNc2ncc(I)cc21` (centres unmarked) [Example 153, 1-[1-(2,5-Difluorophenyl)ethyl]-7-iodo-1,2,3,4-tetrahydropyrido[2,3-b]pyrazine]: the concentration for half-maximal inhibition (IC50) in assay [1] and in assay [2] was over 100 µM throughout. Take `O=C(c1ccccc1)N1CCN(C(=O)c2cnc3c(c2)N(Cc2cc(Cl)ccc2Cl)CCN3)CC1` [Example 219, (4-Benzoylpiperazin-1-yl)-[1-(2,5-dichlorobenzyl)-1,2,3,4-tetrahydropyrido[2,3-b]pyrazin-7-yl]methanone]: the IC50 lay in the range of 1 to 10 µM in assay [1] and 10 to 100 µM in assay [2]. Turning to `CC(c1cc(F)c(F)cc1F)N1C(=O)CNc2ncc(I)cc21` (centres unmarked) [Example 145, 7-Iodo-1-[1-(2,4,5-trifluorophenyl)ethyl]-3,4-dihydro-1H-pyrido[2,3-b]pyrazin-2-one], the IC50 in assay [1] and in assay [2] was over 100 µM in each case.

In the case of `CN1CCN(c2ccc(-c3cnc4c(c3)C(Cc3cc(F)ccc3F)CCN4)cn2)CC1` (centres unmarked) [Example 286, 4-(2,5-Difluorobenzyl)-6-[6-(4-methylpiperazin-1-yl)pyridin-3-yl]-1,2,3,4-tetrahydro-[1,8]naphthyridine], the IC50 was 1 to 10 µM in assay [1] and over 100 µM in assay [2]. Taken in the same sequence, the figures for `CCOC(=O)N1CCC(NC(=O)c2cnc3c(c2)N(Cc2cc(Cl)ccc2Cl)CCN3)CC1` [Example 224, 4-{[1-(2,5-Dichlorobenzyl)-1,2,3,4-tetrahydropyrido[2,3-b]pyrazine-7-carbonyl]amino}piperidine-1-carboxylic acid ethyl ester] were 1 to 10 µM and 10 to 100 µM.

`CN1CCN(c2ccc(-c3cnc4c(c3)N(Cc3cc(Cl)ccc3Cl)CCN4C)cn2)CC1` [Example 188, 1-(2,5-Dichlorobenzyl)-4-methyl-7-[6-(4-methylpiperazin-1-yl)pyridin-3-yl]-1,2,3,4-tetrahydropyrido[2,3-b]pyrazine]: the IC50 is 1 to 10 µM in assay [1] and over 100 µM in assay [2]. `O=C1CNc2ncc(-c3ccc(NS(=O)(=O)CCN4CCCC4)cc3)cc2N1Cc1ccccc1` [Example 45, 2-Pyrrolidin-1-yl-ethanesulfonic acid[4-(1-benzyl-2-oxo-1,2,3,4-tetrahydropyrido[2,3-b]pyrazin-7-yl)phenyl]amide, trifluoroacetic acid salt]: the 50% inhibitory concentration (IC50) in assay [1] was 1 to 10 µM; in assay [2], over 100 µM. Taken in the same sequence, the figures for `O=C(NCc1cccc2ccccc12)c1cnc2c(c1)N(Cc1cc(Cl)ccc1Cl)CCN2` [Example 244, 1-(2,5-Dichlorobenzyl)-1,2,3,4-tetrahydropyrido[2,3-b]pyrazine-7-carboxylic acid (naphthalen-1-yl-methyl)amide] were 1 to 10 µM and over 100 µM. In the same order, the values of `COc1ccc(CNC(=O)c2cnc3c(c2)N(Cc2cc(Cl)ccc2Cl)CCN3)cc1` [Example 258, 1-(2,5-Dichlorobenzyl)-1,2,3,4-tetrahydropyrido[2,3-b]pyrazine-7-carboxylic acid 4-methoxybenzylamide] are 1 to 10 µM and over 100 µM. Taken in the same sequence, the figures for `O=C(O)c1cccc(-c2cnc3c(c2)N(Cc2ccccc2)C(=O)CN3)c1` [Example 31, 3-(1-Benzyl-2-oxo-1,2,3,4-tetrahydropyrido[2,3-b]pyrazin-7-yl)benzoic acid] were over 100 µM and 10 to 100 µM. For `c1ccc(CN2CCNc3ncc(-c4cccnc4)cc32)cc1` [Example 34, 1-Benzyl-7-pyridin-3-yl-1,2,3,4-tetrahydropyrido[2,3-b]pyrazine], the values for the IC50 in assay [1] and in assay [2] were 1 to 10 µM and 10 to 100 µM, respectively. Taken in the same sequence, the figures for `Fc1ccc(F)c(CN2CCNc3ncc(-c4ccnc(N5CCOCC5)c4Cl)cc32)c1Cl` [Example 101, 1-(2-Chloro-3,6-difluorobenzyl)-7-(3-chloro-2-morpholin-4-yl-pyridin-4-yl)-1,2,3,4-tetrahydropyrido[2,3-b]pyrazine] were 0.1 to 1 µM and 1 to 10 µM. Taken in the same sequence, the figures for `CN1CCN(C(=O)c2ccc(-c3cnc4c(c3)C(Oc3cc(Cl)cc(Cl)c3)CCN4)cc2)CC1` (centres unmarked) [Example 275, {4-[5-(3,5-Dichlorophenoxy)-5,6,7,8-tetrahydro-[1,8]naphthyridin-3-yl]phenyl}-(4-methylpiperazin-1-yl)methanone] were 10 to 100 µM and 1 to 10 µM. Turning to `O=C(c1cc(F)ccc1F)N1CCNc2ncc(-c3ccc(C(=O)N4CCC[C@H]4CN4CCCC4)cc3)cc21` [Example 89, (2,5-Difluorophenyl)-{7-[4-((S)-2-[(pyrrolidin-1-yl)methyl]pyrrolidine-1-carbonyl)phenyl]-3,4-dihydro-2H-pyrido[2,3-b]pyrazin-1-yl}-methanone], the IC50 in assay [1] and in assay [2] was 10 to 100 µM throughout. For `O=C(O)c1cccc(-c2cnc3c(c2)N(Cc2cc(Cl)ccc2C(F)(F)F)CCN3)c1` [Example 196, 3-{1-[5-Chloro-2-(trifluoromethyl)benzyl]-1,2,3,4-tetrahydropyrido[2,3-b]pyrazin-7-yl}benzoic acid], the figures for the 50% inhibitory concentration (IC50) in assay [1] and in assay [2] were 1 to 10 µM and 10 to 100 µM, respectively. In the case of `NS(=O)(=O)c1ccc(CCNC(=O)c2cnc3c(c2)N(Cc2cc(Cl)ccc2Cl)CCN3)cc1` [Example 240, 1-(2,5-Dichlorobenzyl)-1,2,3,4-tetrahydropyrido[2,3-b]pyrazine-7-carboxylic acid [2-(4-sulfamoylphenyl)ethyl]amide], the half-maximal inhibitory concentration (IC50) in assay [1] was 0.1 to 1 µM; in assay [2] it was over 100 µM. As for `O=C(c1cccc(-c2cnc3c(c2)N(Cc2cc(Cl)ccc2C(F)(F)F)CCN3)c1)N1CCN(c2ccc(Cl)cc2)CC1` [Example 308, [4-(4-Chlorophenyl)-piperazin-1-yl]-(3-{1-[5-Chloro-2-(trifluoromethyl)benzyl]-1,2,3,4-tetrahydropyrido[2,3-b]pyrazin-7-yl}phenyl)methanone], the IC50 in assay [1] was in the range of 0.1 to 1 µM.
